tested on: Endogenous Huntingtin Protein; experiment: Endogenous Huntingtin Protein Assay (Meso Scale Discovery ELISA-based electrochemiluminescence); format: cell-based; details: MSD electrochemiluminescence, Table 1
Description: Compounds of Formula (I) were tested using the Meso Scale Discovery (MSD) Assay provided in International Application No. PCT/US2016/066042, filed on Dec. 11, 2016 and claiming priority to United States Provisional Application U.S. 62/265,652 filed on Dec. 10, 2015, the entire contents of which are incorporated herein by reference.
The Endogenous Huntingtin Protein assay used in Example 1 was developed using the ELISA-based MSD electrochemiluminescence assay platform.
Endogenous Huntingtin Protein Assay
Meso Scale Discovery (MSD) 96-well or 384-well plates were coated overnight at 4° C. with MW1 (expanded polyglutamine) or MAB2166 monoclonal antibody (for capture) at a concentration of 1 μg/mL in PBS (30 μL per well). Plates were then washed three times with 300 μL wash buffer (0.05% Tween-20 in PBS) and blocked (100 μL blocking buffer; 5% BSA in PBS) for 4-5 hours at room temperature with rotational shaking and then washed three times with wash buffer.
Samples (25 μL) were transferred to the antibody-coated MSD plate and incubated overnight at 4° C. After removal of the lysates, the plate was washed three times with wash buffer, and 25 μL of #5656S (Cell signaling; rabbit monoclonal) secondary antibody (diluted to 0.25 μg/mL in 0.05% Tween-20 in blocking buffer) was added to each well and incubated with shaking for 1 Hour at room temperature. Following incubation with the secondary antibody, the wells were rinsed with wash buffer after which 25 μL of goat anti-rabbit SULFO TAG secondary detection antibody (required aspect of the MSD system) (diluted to 0.25 μg/mL in 0.05% Tween-20 in blocking buffer) was added to each well and incubated with shaking for 1 hour at room temperature. After rinsing three times with wash buffer, 150 μL of read buffer T with surfactant (MSD) were added to each empty well, and the plate was imaged on a SI 6000 imager (MSD) according to manufacturers' instructions provided for 96- or 384-well plates.

Structure (SMILES) | IC50 [nM]
Cc1cn2cc(-c3nnc4cc(C5CCNCC5)ccc4n3)cc(F)c2n1 [Compound 43, 3-(8-fluoro-2-methylimidazo[1,2-a]pyridin-6-yl)-7-(piperidin-4-yl)-1,2,4-benzotriazine] | ≤ 100
Cc1cn2nc(-c3nnc4cc(C5CCNCC5)ccc4n3)cc(C)c2n1 [Compound 44, 3-(2,8-dimethylimidazo[1,2-b]pyridazin-6-yl)-7-(piperidin-4-yl)-1,2,4-benzotriazine] | 100 to 500
Cc1cn2nc(-c3cc(F)c4nc(C5CCNCC5)ccc4c3)cc(C)c2n1 [Compound 45, 6-(2,8-dimethylimidazo[1,2-b]pyridazin-6-yl)-8-fluoro-2-(piperidin-4-yl)quinoline] | ≤ 100
Cc1cn2nc(-c3cc(F)c4nc(C5CCNCC5)nnc4c3)cc(C)c2n1 [Compound 46, 7-(2,8-dimethylimidazo[1,2-b]pyridazin-6-yl)-5-fluoro-3-(piperidin-4-yl)-1,2,4-benzotriazine] | ≤ 100
Cc1cn2nc(-c3cc(F)c4nc(C5CCN(C)CC5)ccc4c3)cc(C)c2n1 [Compound 47, 6-(2,8-dimethylimidazo[1,2-b]pyridazin-6-yl)-8-fluoro-2-(1-methylpiperidin-4-yl)quinoline] | ≤ 100
CCN1CCC(c2ccc3cc(-c4cc(C)c5nc(C)cn5n4)cc(F)c3n2)CC1 [Compound 48, 6-(2,8-dimethylimidazo[1,2-b]pyridazin-6-yl)-2-(1-ethylpiperidin-4-yl)-8-fluoroquinoline] | ≤ 100
COc1cc(-c2cc(F)c3nc(C4CCNCC4)ccc3c2)cc2cn(C)nc12 [Compound 49, 8-fluoro-6-(7-methoxy-2-methyl-2H-indazol-5-yl)-2-(piperidin-4-yl)quinoline] | ≤ 100
Cc1cn2cc(-c3cc(F)c4nc(C5CCNCC5)ccc4c3)cc(F)c2n1 [Compound 50, 8-fluoro-6-(8-fluoro-2-methylimidazo[1,2-a]pyridin-6-yl)-2-(piperidin-4-yl)quinoline] | ≤ 100
COc1cc(-c2cc(F)c3nc(C4CCNCC4)ccc3c2)nn2cc(C)nc12 [Compound 51, 8-fluoro-6-(8-methoxy-2-methylimidazo[1,2-b]pyridazin-6-yl)-2-(piperidin-4-yl)quinoline] | ≤ 100
COc1cc(-c2nnc3cc(C4CCNCC4)ccc3n2)cc2cn(C)nc12 [Compound 52, 3-(7-methoxy-2-methyl-2H-indazol-5-yl)-7-(piperidin-4-yl)-1,2,4-benzotriazine] | ≤ 100
COCCOc1cc(-c2cc(F)c3nc(C4CCNCC4)ccc3c2)nn2cc(C)nc12 [Compound 53, 8-fluoro-6-[8-(2-methoxyethoxy)-2-methylimidazo[1,2-b]pyridazin-6-yl]-2-(piperidin-4-yl)quinoline] | 100 to 500
COCCNc1cc(-c2cc(F)c3nc(C4CCNCC4)ccc3c2)nn2cc(C)nc12 [Compound 54, 6-[8-fluoro-2-(piperidin-4-yl)quinolin-6-yl]-N-(2-methoxyethyl)-2-methylimidazo[1,2-b]pyridazin-8-amine] | 100 to 500
Cc1cc(-c2cc(F)c3cc(C4=CCNCC4)nnc3c2)cc2cn(C)nc12 [Compound 55, 7-(2,7-dimethyl-2H-indazol-5-yl)-5-fluoro-3-(1,2,3,6-tetrahydropyridin-4-yl)cinnoline] | ≤ 100
Cc1cn2cc(-c3nnc4cc(C5CC6CCC(C5)N6)ccc4n3)cc(F)c2n1 (centres unmarked) [Compound 56, 7-(8-azabicyclo[3.2.1]oct-3-yl)-3-(8-fluoro-2-methylimidazo[1,2-a]pyridin-6-yl)-1,2,4-benzotriazine] | ≤ 100
Cc1cn2nc(-c3nnc4cc(C5CCNCC5)cc(F)c4n3)cc(C)c2n1 [Compound 57, 3-(2,8-dimethylimidazo[1,2-b]pyridazin-6-yl)-5-fluoro-7-(piperidin-4-yl)-1,2,4-benzotriazine] | ≤ 100
Cc1cn2cc(-c3cc(F)c4nc(C5CCNCC5)nnc4c3)cc(F)c2n1 [Compound 58, 5-fluoro-7-(8-fluoro-2-methylimidazo[1,2-a]pyridin-6-yl)-3-(piperidin-4-yl)-1,2,4-benzotriazine] | ≤ 100
CCOc1cc(-c2cc(F)c3nc(C4CCNCC4)nnc3c2)nn2cc(C)nc12 [Compound 59, 7-(8-ethoxy-2-methylimidazo[1,2-b]pyridazin-6-yl)-5-fluoro-3-(piperidin-4-yl)-1,2,4-benzotriazine] | ≤ 100
Cc1cn2cc(-c3cc(F)c4nc(C5CCNCC5)nnc4c3)cc(C)c2n1 [Compound 60, 7-(2,8-dimethylimidazo[1,2-a]pyridin-6-yl)-5-fluoro-3-(piperidin-4-yl)-1,2,4-benzotriazine] | 100 to 500
Cc1cn2cc(-c3cc(F)c4nc(C5CCNCC5)nnc4c3)cc(C(F)(F)F)c2n1 [Compound 61, 5-fluoro-7-[2-methyl-8-(trifluoromethyl)imidazo[1,2-a]pyridin-6-yl]-3-(piperidin-4-yl)-1,2,4-benzotriazine] | 500 to 1000
Cc1nc2c(C)cc(-c3cc(F)c4nc(C5CCNCC5)nnc4c3)cc2o1 [Compound 62, 7-(2,4-dimethyl-1,3-benzoxazol-6-yl)-5-fluoro-3-(piperidin-4-yl)-1,2,4-benzotriazine] | ≤ 100
Cc1nc2c(C)cc(-c3cc(F)c4nc(C5CCNCC5)nnc4c3)cc2[nH]1 [Compound 63, 7-(2,4-dimethyl-1H-benzimidazol-6-yl)-5-fluoro-3-(piperidin-4-yl)-1,2,4-benzotriazine] | ≤ 100
Cc1cn2cc(-c3cc(F)c4nc(C5CCNCC5)nnc4c3)cc2c(C)n1 [Compound 64, 7-(1,3-dimethylpyrrolo[1,2-a]pyrazin-7-yl)-5-fluoro-3-(piperidin-4-yl)-1,2,4-benzotriazine] | ≤ 100
Cc1cc2cc(-c3cc(F)c4nc(C5CCNCC5)nnc4c3)cc(C)n2n1 [Compound 65, 7-(2,7-dimethylpyrazolo[1,5-a]pyridin-5-yl)-5-fluoro-3-(piperidin-4-yl)-1,2,4-benzotriazine] | 100 to 500
Cc1cc(-c2cc(F)c3nc(C4CCNCC4)nnc3c2)nc2cn(C)nc12 [Compound 66, 7-(2,7-dimethyl-2H-pyrazolo[4,3-b]pyridin-5-yl)-5-fluoro-3-(piperidin-4-yl)-1,2,4-benzotriazine] | ≤ 100
Cc1nc(-c2cc(F)c3nc(C4CCNCC4)nnc3c2)cc2cn(C)nc12 [Compound 67, 7-(2,7-dimethyl-2H-pyrazolo[3,4-c]pyridin-5-yl)-5-fluoro-3-(piperidin-4-yl)-1,2,4-benzotriazine] | 100 to 500
Cc1nc2c(F)cc(-c3cc(F)c4nc(C5CCNCC5)nnc4c3)cc2o1 [Compound 68, 5-fluoro-7-(4-fluoro-2-methyl-1,3-benzoxazol-6-yl)-3-(piperidin-4-yl)-1,2,4-benzotriazine] | ≤ 100
Cc1cn2nc(-c3cc(F)c4nc(C5CCN(C)CC5)nnc4c3)cc(C)c2n1 [Compound 69, 7-(2,8-dimethylimidazo[1,2-b]pyridazin-6-yl)-5-fluoro-3-(1-methylpiperidin-4-yl)-1,2,4-benzotriazine] | ≤ 100
CCN1CCC(c2nnc3cc(-c4cc(C)c5nc(C)cn5n4)cc(F)c3n2)CC1 [Compound 70, 7-(2,8-dimethylimidazo[1,2-b]pyridazin-6-yl)-3-(1-ethylpiperidin-4-yl)-5-fluoro-1,2,4-benzotriazine] | ≤ 100
Cc1cc(-c2cc(F)c3cc(C4CCNCC4)ncc3c2)cc2cn(C)nc12 [Compound 71, 7-(2,7-dimethyl-2H-indazol-5-yl)-5-fluoro-3-(piperidin-4-yl)isoquinoline] | ≤ 100
